Test results reported in patent US9133235B2, “Macrocyclic antagonists of the motilin receptor for treatment of gastrointestinal dysmotility disorders” (Ocera Therapeutics, Inc., priority 2006, dated 2015).
Where two headings read alike, the source gives them in different places.

What was measured:
[1] = test system: strips of rabbit duodenum; experiment: Rabbit duodenum contractility assay; conditions: pA2 from Schild plot, motilin dose response after 15 minute incubation
Procedure: D. Rabbit Duodenum Contractility Assay
Evaluation of compounds of the invention for ex vivo activity was conducted on strips of rabbit duodenum according to literature methods. (Van Assche, G.; Depoortere, I.; Thijs, T.; Janssens, J. J.; Peeters, T. L. Eur. J. Pharmacol. 1997, 337, 267-274; Matthijs, G.; Peeters, T. L.; Vantrappen, G. Naunyn-Schmiedeberg's Arch. Pharmacol. 1989, 339, 332-339.) Related methods can also be employed for this type of study. (Tomomasa, T.; Yagi, H.; Kimura, S.; Snape, W. J., Jr.; Hyman, P. E. Pediatric Res. 1989, 26, 458-461; Takanishi, H.; Yogo, K.; Ozaki, M.; Akima, M.; Koga, H.; Nabata, H. J. Pharm. Exp. Ther. 1995, 273, 624-628.)
Duodenal segments were vertically suspended in organ chambers of 10 mL filled with Krebs buffer and connected to an isotonic force transducer, with a preload of 1 g. After a stabilization period, the muscle strips were challenged with 10^−4 M acetylcholine and washed. This was repeated until a stable maximal contraction was obtained (2-3 times), with an interval of at least 20 minutes.
After a stable base line was reached, test compounds were added to the bath. After a 15 minute incubation, a dose response to motilin was recorded by adding logarithmically increasing concentrations of motilin to the bath (final concentration 10^−9 to 10^−6 M). A blank experiment (no test compound present) was also performed. At the end of the dose response curve, a supramaximal dose of acetylcholine (10^−4 M) was given and this response was used as a reference (100% contraction).
The results of experiments at different concentrations of test compound were combined and analyzed to derive the pA2 value from the Schild plot.

[2] = Pharmacokinetic analysis in rat (i.v., s.c., p.o.); type: in vivo; conditions: for half-life: read-out: Elimination (t1/2, min)
Excerpt: I. Pharmacokinetic Analysis of Representative Compounds of the Invention
The pharmacokinetic behavior of compound of the invention can be ascertained by methods well known to those skilled in the art. (Wilkinson, G. R. “Pharmacokinetics: The Dynamics of Drug Absorption, Distribution, and Elimination” in Goodman & Gilman's The Pharmacological Basis of Therapeutics, Tenth Edition, Hardman, J. G.; Limbird, L. E., Eds., McGraw Hill, Columbus, Ohio, 2001, Chapter 1.) The following method was used to investigate the pharmacokinetic parameters (elimination half-life, total plasma clearance, etc.) for intravenous, subcutaneous and oral administration of compounds of the present invention.
Rats: male, Sprague-Dawley (˜250 g)
Rats/Treatment Group: 6 (2 subsets of 3 rats each, alternate bleeds)
Each sample of test compound was sent in solution in a formulation (such as with cyclodextrin) appropriate for dosing. It will be appreciated by one skilled in the art that appropriate modifications to this protocol can be made as required to adequately test the properties of the compound under analysis.
1. Intravenous (i.v.): 2 mg/kg
2. Subcutaneous(s.c): 2 mg/kg
Plasma Collection 1. Same protocol for all dosing groups 2. For each group, 2 subsets (A and B) of 3 rats/subset
At the time intervals indicated above, 0.7 mL of blood were collected from each animal. It is expected that this volume of blood will yield a sample of at least 0.3 mL of plasma. EDTA was used as an anti-coagulant for whole blood collection. Whole blood samples were chilled and immediately processed by centrifugation to obtain plasma.
Plasma samples were stored frozen (−70° C.) until analysis. Analytical detection of parent compound in plasma samples performed by LC-MS after an appropriate preparation protocol: extraction using solid phase extraction (SPE) cartridges (Oasis MCX, Oasis HLB) or liquid-liquid extraction.
Column: Atlantis dC18 from Waters 2.1×30 mm
A: 95% MeOH, 5% water, 0.1% TFA
B: 95% water, 5% MeOH, 0.1% TFA
The analyte was quantitated based upon a standard curve and the method validated with internal standards.

Row | SMILES | Contractile Potency (pA2) [1] | Clearance ([2]; i.v.) [mL/min/kg] | Elimination (t1/2, min) ([2]; i.v., typical dose 2 mg/kg) [min] | Clearance ([2]; s.c.) [mL/min/kg] | Elimination (t1/2, min) ([2]; s.c., typical dose 2 mg/kg) [min] | Elimination (t1/2, min) ([2]; p.o., typical dose 8 mg/kg, without cyclodextrin) [min] | Bioavailability (oral) ([2]; p.o., without cyclodextrin) [%] | Clearance ([2]; male, Sprague-Dawley, plasma, iv, 1.9 mg/kg, i.v., read-out: Clearance) [mL/min/kg] | half-life ([2]; male, Sprague-Dawley, plasma, iv, typical dose 2 mg/kg) [min] | bioavailability ([2]; male, Sprague-Dawley, plasma, po, 8 mg/kg, in the presence of 10% beta-cyclodextrin) [%] | half-life ([2]; male, Sprague-Dawley, plasma, po, typical dose 8 mg/kg, in the presence of 10% beta-cyclodextrin) [min] | half-life ([2]; male, Sprague-Dawley, plasma, sc, typical dose 2 mg/kg) [min]
1 | CC(C)[C@H]1NC(=O)[C@@H](Cc2cccc(C(F)(F)F)c2)NCCOc2ccccc2CCCNC(=O)[C@H](CN(C)C)NC1=O [Compound 502] | 7.92 | 57 | 102 | 79 | 146 | – | – | – | – | – | – | –
2 | CCC[C@@H]1NC(=O)[C@@H](C(C)C)NC(=O)[C@@H](Cc2cccc(F)c2)N[C@@H](C)COc2ccccc2CCCNC1=O [Compound 551] | 8.29 | 33 | 139 | – | – | 70 to 125 | 6 | – | – | – | – | –
3 | CCC[C@@H]1NC(=O)[C@@H](C(C)C)NC(=O)[C@@H](Cc2ccc(O)c(Cl)c2)N[C@@H](C)COc2ccccc2CCCNC1=O [Compound 552] | – | – | – | 39 | – | – | – | 45 | 24 | 10 | 307 | 103
4 | CCC[C@@H]1NC(=O)[C@@H](C(C)C)NC(=O)[C@@H](Cc2ccc(O)c(C(C)(C)C)c2)NCCOc2ccccc2CCCNC1=O [Compound 553] | 8.71 | – | – | – | – | – | – | – | – | – | – | –
